The structures appear in SMILES notation. Values joined by “and” are separate entries in the source; they are usually repeats but may differ in a detail not shown here. Equal values may be shown once.

Holding throughout (assay type): cell-based, mouse
In series [1] the test system is EWS-FLI1 chimeric fusion expression in clone 7.5. Nature of the series: Induction of chimeric fusion by doxycycline (RT-PCR), clone 7.5. The note with it: 48 hours. The method, then:
(§1) FIG. 3. Induction of chimeric fusion by Doxycycline. A. Upper gel. Induction of chimeric fusion following treatment of the cells with increasing doxycycline doses (0-3 μg/ml) in clone 7.5. The maximum induction was obtained for 2.5-μg/ml doxycycline doses. Lower gel. The quantity of amplified product was identical in all cases, as shown by Beta-actin. B. Upper gel. The maximum induction for clone 10.6 was at 1.5-μg/ml doxycycline doses. Higher doses caused saturation of the promoter's response. Lower gel. Beta-actin.
(§2) Clones 7.5 and 10.6 received increasing doses of doxycycline for 48 hours, after which time the presence of fusion was examined by means of RT-PCR.

Series [2] concerns EWS-FLI1 chimeric fusion expression in clone 10.6. The experiment in a line: Induction of chimeric fusion by doxycycline (RT-PCR), clone 10.6. Conditions: 48 hours. The method, then:
as §1, §2

The test system of series [3] is C3H/10T1/2 parental cell line. The experiment in a line: Cytotoxicity experiment with increasing doses of blasticidin. The note with it: doses 0.3-3 μg/ml. The method, then:
The selective blasticidin dose was established on the basis of a previous cytotoxicity experiment for the C3H/10T1/2 parental cell line, which received increasing doses of blasticidin (0.3, 0.6, 0.8, 1, 1.5, 2, 2.5, 3 μg/ml). 2 μg/ml was determined to be the lowest dose that induced 100% death due to cytotoxicity.

For `C[C@H]1c2cccc(O)c2C(=O)C2=C(O)[C@]3(O)C(=O)C(C(N)=O)=C(O)[C@@H](N(C)C)[C@@H]3[C@@H](O)[C@@H]21` [doxycycline], the “doxycycline dose causing a slight induction of chimeric fusion” value in series [1] amounted to 0.3 µg/mL. The “doxycycline concentration of maximum induction of chimeric fusion” value in series [1] (doses 0-3 μg/ml) amounted to 2.5 µg/mL. Moreover, in series [2], the “doxycycline concentration of maximum induction of chimeric fusion (higher doses cause no greater induction)” value is 1.5 to 2 µg/mL and 1.5 µg/mL; the “doxycycline dose at which induction of fusion was found” value is recorded as “greater than 0.3 μg/ml”.
Take `CN(CC[C@H](N)CC(=O)N[C@H]1C=C[C@H](n2ccc(N)nc2=O)O[C@@H]1C(=O)O)C(=N)N` [blasticidin]: in series [3], the “lowest dose that induced 100% death due to cytotoxicity” value was found to be 2 µg/mL.

(Values after US20090217390A1, “Non-human animal sarcoma model” (priority 2005, published 2009).)
